Legend:
Cathepsin K [1] = biological target: Cathepsin K (Homo sapiens, UniProt P43235); experiment: Inhibition of humaized rabbit cathepsin K
Cathepsin K [2] = biological target: T1, Cathepsin K (Oryctolagus cuniculus, UniProt P43236); experiment: Inhibition of rabbit cathepsin K
T1 sequence (P43236 whole entry): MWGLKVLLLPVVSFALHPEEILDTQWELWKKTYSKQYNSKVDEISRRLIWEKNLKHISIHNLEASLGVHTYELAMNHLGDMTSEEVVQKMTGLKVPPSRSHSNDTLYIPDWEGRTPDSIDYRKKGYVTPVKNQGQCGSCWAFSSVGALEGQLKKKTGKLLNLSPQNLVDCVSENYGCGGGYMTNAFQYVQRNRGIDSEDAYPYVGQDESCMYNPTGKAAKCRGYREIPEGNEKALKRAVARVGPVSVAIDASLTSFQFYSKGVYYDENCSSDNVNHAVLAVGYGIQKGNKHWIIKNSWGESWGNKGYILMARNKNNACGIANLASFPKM

Homo sapiens [3] = species: Homo sapiens; experiment: Selectivity for human cathepsin K over human cathepsin L
Homo sapiens [4] = species: Homo sapiens; experiment: Selectivity for human cathepsin K over human cathepsin B
Homo sapiens [5] = species: Homo sapiens; experiment: Selectivity for human cathepsin K over human cathepsin S
Oryctolagus cuniculus [6] = species: Oryctolagus cuniculus; experiment: Inhibition of bone resorption in New Zealand white rabbit by crosslaps ELISA assay; format: functional, organism-based
Oryctolagus cuniculus [7] = species: Oryctolagus cuniculus; experiment: Selectivity for IC50 of new Zealand white […] bone resorption over IC50 rabbit cathepsin K; format: functional
[8] = Oral bioavailability in rat at 5 mg/kg; format: ADME, organism-based; conditions: in vivo
[9] = Half life in rat at 5 mg/kg, po or 1 mg/kg, iv; format: ADME, organism-based; conditions: in vivo
[10] = AUC in rat at 5 mg/kg, po or 1 mg/kg, iv; format: ADME, organism-based; conditions: plasma
[11] = Oral bioavailability in rat at 10 mg/kg; format: ADME, organism-based; conditions: in vivo
[12] = Half life in rat at 10 mg/kg, po or 5 mg/kg, iv; format: ADME, organism-based; conditions: in vivo
[13] = AUC in rat at 10 mg/kg, po or 5 mg/kg, iv; format: ADME, organism-based; conditions: plasma

Row | SMILES | IC50 (Cathepsin K [1]) [nM] | IC50 (Cathepsin K [2]) [nM] | Selectivity ratio (Homo sapiens [3]) | Selectivity ratio (Homo sapiens [4]) | Selectivity ratio (Homo sapiens [5]) | IC50 (Oryctolagus cuniculus [6]; Oryctolagus cuniculus) [nM] | bioavailability [8] [%] | half-life [9] [min] | AUC [10] [µM·h] | bioavailability [11] [%] | half-life [12] [min] | AUC [13] [µM·h] | IC50 (Oryctolagus cuniculus [6]) [nM] | Ratio IC50 (Oryctolagus cuniculus [7])
1 | CSc1ccc(-c2c(C3CCC(F)(F)CC3C(=O)NCC#N)cc[nH]c2=O)cc1 (racemic) | 8 | 6 | 430 | > 1250 | 310 | 84 |  |  |  |  |  |  |  | 14
2 | CSc1ccc(-c2c(C3CCC(F)(F)CC3C(=O)NCC#N)nnn2Cc2ccccc2)cc1 (racemic) | 2 | 9 | 350 | 1400 | 180 | 33 |  |  |  |  |  |  |  | 4
3 | N#CCNC(=O)C1CC(F)(F)CCC1c1cnccc1-c1ccc(SCF)cc1 (racemic) | 2 | 2 | 260 | > 5000 | 450 | 58 |  |  |  |  |  |  |  | 29
4 | CSc1ccc(-c2c[n+]([O-])ccc2C2CCC(F)(F)CC2C(=O)NCC#N)cc1 (racemic) | 5 | 5 | 460 | > 2000 | 480 | 75 |  |  |  |  |  |  |  | 15
5 | CSc1ccc(-c2ncccc2C2CCC(F)(F)CC2C(=O)NCC#N)cc1 (racemic) | 1 | 1 | 540 | > 10000 | 850 | 10 |  |  |  |  |  |  |  | 10
6 | CSc1ccc(-c2c[nH]c(=O)cc2C2CCC(F)(F)CC2C(=O)NCC#N)cc1 (racemic) | 4 | 5 | 410 | 1200 | 540 | 20 |  |  |  |  |  |  |  | 4
7 | CSc1ccc(-c2ccccc2C2CCC(F)(F)CC2C(=O)NCC#N)cc1 (racemic; form 1) [listing 2 of 2 here] |  |  | 780 | > 36000 | 940 |  |  |  |  |  |  |  |  | 53
8 | CSc1ccc(-c2ccccc2C2CCC(F)(F)CC2C(=O)NCC#N)cc1 (racemic; form 2) [listing 2 of 2 here] |  |  | 880 | > 120000 | 1100 |  |  |  |  |  |  |  |  | 76

Continued, in another order:

Row | IC50 (Cathepsin K [1]) [nM] | IC50 (Cathepsin K [2]) [nM] | Selectivity ratio (Homo sapiens [3]) | Selectivity ratio (Homo sapiens [4]) | Selectivity ratio (Homo sapiens [5]) | IC50 (Oryctolagus cuniculus [6]; Oryctolagus cuniculus) [nM] | bioavailability [8] [%] | half-life [9] [min] | AUC [10] [µM·h] | bioavailability [11] [%] | half-life [12] [min] | AUC [13] [µM·h] | IC50 (Oryctolagus cuniculus [6]) [nM] | SMILES | Ratio IC50 (Oryctolagus cuniculus [7])
9 | 0.2 | 0.1 | 270 | 15000 | 380 | 17 |  |  |  |  |  |  |  | CSc1ccc(-c2nc(C)sc2C2CCC(F)(F)CC2C(=O)NCC#N)cc1 (racemic) | 170
10 | 1 | 1 | 520 | > 10000 | 720 | 18 | 65 | 60 | 8.6 |  |  |  |  | CSc1ccc(-c2cnccc2C2CCC(F)(F)CC2C(=O)NCC#N)cc1 (racemic) | 18
11 | 0.4 | 0.4 | 730 | 9500 | 490 | 41 |  |  |  | 100 | 276 | 28.9 |  | CSc1ccc(-c2cn(C)nc2C2CCC(F)(F)CC2C(=O)NCC#N)cc1 (racemic) | 103
12 | 0.3 | 0.3 |  |  |  |  |  |  |  | 39 |  | 18.5 | 16 | CSc1ccc(-c2ccccc2C2CCC(F)(F)CC2C(=O)NCC#N)cc1 (racemic; form 1) [listing 1 of 2 here] | 
13 | 0.5 |  |  |  |  |  |  |  |  |  |  |  | 38 | CSc1ccc(-c2ccccc2C2CCC(F)(F)CC2C(=O)NCC#N)cc1 (racemic; form 2) [listing 1 of 2 here] | 

— ChEMBL document CHEMBL1139919, “Beta-substituted cyclohexanecarboxamide cathepsin K inhibitors: modification of the 1,2-disubstituted aromatic core” (Bioorg Med Chem Lett, 2007)
